For one assay, the target named is T1, Tyro-3 (h) (Homo sapiens, UniProt Q06418).
T1 sequence (Q06418 41-890): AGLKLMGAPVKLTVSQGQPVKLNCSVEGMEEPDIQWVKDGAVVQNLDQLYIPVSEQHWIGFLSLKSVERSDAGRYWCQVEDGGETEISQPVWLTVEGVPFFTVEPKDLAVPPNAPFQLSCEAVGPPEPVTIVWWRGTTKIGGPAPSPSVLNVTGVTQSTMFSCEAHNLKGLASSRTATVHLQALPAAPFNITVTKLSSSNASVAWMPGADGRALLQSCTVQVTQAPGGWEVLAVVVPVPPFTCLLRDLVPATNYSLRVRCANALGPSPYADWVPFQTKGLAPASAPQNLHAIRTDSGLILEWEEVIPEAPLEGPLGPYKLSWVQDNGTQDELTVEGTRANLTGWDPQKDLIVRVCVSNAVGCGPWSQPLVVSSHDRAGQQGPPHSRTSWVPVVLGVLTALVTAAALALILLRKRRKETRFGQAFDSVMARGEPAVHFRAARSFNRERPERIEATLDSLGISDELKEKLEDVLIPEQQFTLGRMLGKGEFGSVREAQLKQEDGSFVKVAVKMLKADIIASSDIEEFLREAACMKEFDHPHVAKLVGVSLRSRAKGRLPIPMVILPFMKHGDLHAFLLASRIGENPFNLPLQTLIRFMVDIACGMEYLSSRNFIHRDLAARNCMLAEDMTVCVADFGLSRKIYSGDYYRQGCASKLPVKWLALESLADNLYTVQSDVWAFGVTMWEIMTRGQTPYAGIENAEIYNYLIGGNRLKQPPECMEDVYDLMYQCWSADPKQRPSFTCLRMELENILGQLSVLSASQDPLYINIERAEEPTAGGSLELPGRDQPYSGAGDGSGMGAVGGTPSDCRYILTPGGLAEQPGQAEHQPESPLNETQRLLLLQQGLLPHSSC
Put plainly: Enzymatic activity assay, Tyro-3 (h), [γ-33P]-ATP filter assay. In kind it is biochemical. Particulars: 10 μM ATP, 40 min room temperature; read-out: Inhibitory activity IC50 Tyro-3(h). On the procedure: Compounds were each dissolved in 100% DMSO to prepare stock solutions with a maximum concentration of 500 μM.
Compound working solutions (50×) were prepared by diluting a compound stock solution to a final concentration of 500, 150, 50, 15, 5, 1.5, 0.5, 0.15 and 0.05 μM.
An enzyme solution with a final concentration of 38 nM was prepared by dissolving Tyro3 (h) enzyme in a mixture of 8 mM MOPS (pH 7.0), 0.2 mM EDTA, 1 mM MnCl2 and 250 μM KVEKIGEGTYGVVYK. A Mg/ATP mixture of 10 mM magnesium acetate and 10 μM [γ-^33P]-ATP was used to activate the enzymatic reaction.
A compound working solution was added to a 384-well plate, with final concentrations of 10,000, 3,000, 1,000, 300, 100, 30, 10, 3 and 1 nM, and then different enzymatic reaction solutions prepared according to the above conditions were added. The reaction solutions were incubated at room temperature for 40 min, and then 0.5% phosphoric acid solutions were added to terminate the reaction. 10 μL of the reaction solution was added dropwise to P30 filter paper, washed 4 times with a 0.425% phosphoric acid solution and once with methanol, and then placed in a scintillation counter for detection. Gray analysis was performed on the results with Image J software, and IC50 values were calculated with GraphPad 5.0 software.

In the next assay the target is T2, H1299 cell pMer (Homo sapiens, UniProt Q12866).
T2 construct: endogenous in cells; host or cells: H1299
T2 sequence (Q12866 21-999): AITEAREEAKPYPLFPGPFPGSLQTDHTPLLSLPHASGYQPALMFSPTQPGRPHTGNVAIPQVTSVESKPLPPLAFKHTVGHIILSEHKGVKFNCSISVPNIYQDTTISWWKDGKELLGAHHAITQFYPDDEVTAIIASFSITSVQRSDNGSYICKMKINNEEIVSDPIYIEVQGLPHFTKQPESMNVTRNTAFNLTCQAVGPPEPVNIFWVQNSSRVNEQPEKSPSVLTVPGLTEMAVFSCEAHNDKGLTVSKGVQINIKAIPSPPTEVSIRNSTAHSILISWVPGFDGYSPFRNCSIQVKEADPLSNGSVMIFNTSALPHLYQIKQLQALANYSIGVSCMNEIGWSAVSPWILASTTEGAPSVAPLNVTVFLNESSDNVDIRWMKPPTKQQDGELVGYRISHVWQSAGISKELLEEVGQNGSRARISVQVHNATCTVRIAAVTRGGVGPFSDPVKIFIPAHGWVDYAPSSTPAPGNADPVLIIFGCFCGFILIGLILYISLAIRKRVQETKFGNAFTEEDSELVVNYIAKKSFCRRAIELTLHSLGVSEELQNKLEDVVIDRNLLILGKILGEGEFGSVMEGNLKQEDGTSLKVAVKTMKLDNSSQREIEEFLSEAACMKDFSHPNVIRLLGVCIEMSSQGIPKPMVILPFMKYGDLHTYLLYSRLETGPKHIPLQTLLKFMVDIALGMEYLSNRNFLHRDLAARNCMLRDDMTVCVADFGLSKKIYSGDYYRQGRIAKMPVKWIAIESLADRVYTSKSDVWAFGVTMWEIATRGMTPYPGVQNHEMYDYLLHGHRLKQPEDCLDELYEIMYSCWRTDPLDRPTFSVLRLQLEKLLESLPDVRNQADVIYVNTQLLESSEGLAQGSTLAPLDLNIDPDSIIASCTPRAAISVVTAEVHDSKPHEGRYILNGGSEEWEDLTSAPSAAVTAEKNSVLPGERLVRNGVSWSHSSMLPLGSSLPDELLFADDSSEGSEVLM
As to the kind of experiment: Inhibitory activity on cell pMer, H1299 cells, Human Mer Mab stimulation, Western Blot. To be noted: Human Mer Mab 200 ng/mL. In kind it is cell-based. On the procedure:
H1299 is anon-small cell lung cancer cell.
H1299 cells were inoculated to a 6-well plate (containing 10% FBS 1640 medium, 5×10^5 cells per well) and adherently cultivated at 37° C., and 5% CO2 for 18 hrs. The cells were starved overnight, and then compound solutions with different concentrations were added. The compounds had final concentrations of 0.35, 1.1, 3.3 and 10 nM. […] There was a medium containing 1‰DMSO in the negative control well. The cells were incubated at 37° C., and 5% CO2 for 60 min, and then Human Mer Mab (R&D, final concentration: 200 ng/mL) was added to each well. The cells were further incubated for 60 min, and then the total protein of the cells was extracted for Western Blot experiment. Gray analysis was performed on the results with Image J software, and IC50 values were calculated with GraphPad 5.0 software. The inhibitory activities of the compounds on cell pMer were detected.
A general note: Immunoblotting shows a protein as a band on a membrane.

pIC50: −log10 of the molar value.

For the compound `COc1cc2nccc(Oc3ccc(NC(=O)c4cn(CC5CCSCC5)cc(-c5ccc(C)cc5)c4=O)nc3)c2cc1OC` [Compound 9, N-(5-((6,7-dimethoxyquinolin-4-yl)oxy)pyridin-2-yl)-4-oxo-1-((tetrahydro-2H-thiopyran-4-yl)methyl)-5-(p-tolyl)-1,4-dihydropyridin-3-carboxamide], the pIC50 (in general, the IC50 on a negative log10 scale, so that one unit is a factor of ten) at Tyro-3 (h) is 7.55; at H1299 cell pMer it was 8.48 to 8.96.
For `COc1cc2nccc(Oc3cnc(NC(=O)c4nn(CC5CCOCC5)cc(-c5ccc(C)cc5)c4=O)nc3)c2cc1OC` [Compound 16, N-(5-((6,7-dimethoxyquinolin-4-yl)oxy)pyrimidin-2-yl)-4-oxo-1-((tetrahydro-2H-pyran-4-yl)methyl)-5-(p-tolyl)-1,4-dihydropyridazin-3-carboxamide] the same measures were 7.64 and 8.96.
Consider `COc1cc2nccc(Oc3ccc(NC(=O)c4nn(C5CCOCC5)cc(-c5ccc(C)cc5)c4=O)nc3)c2cc1OC` [Compound 17, N-(5-((6,7-dimethoxyquinolin-4-yl)oxy)pyridin-2-yl)-4-oxo-1-(tetrahydro-2H-pyran-4-yl)-5-(p-tolyl)-1,4-dihydropyridazin-3-carboxamide], for which the negative logarithm of the IC50 (pIC50) was 7.85 on Tyro-3 (h) and greater than 9.46 against H1299 cell pMer.
On to `COc1cc2nccc(Oc3cnc(NC(=O)c4nn(C5CCOCC5)cc(-c5ccc(C)cc5)c4=O)nc3)c2cc1OC` [Compound 18, N-(5-((6,7-dimethoxyquinolin-4-yl)oxy)pyrimidin-2-yl)-4-oxo-1-(tetrahydro-2H-pyran-4-yl)-5-(p-tolyl)-1,4-dihydropyridazin-3-carboxamide], for which the pIC50 on Tyro-3 (h) is 7.24; against H1299 cell pMer, greater than 8.96.
Consider `COc1cc2nccc(Oc3ccc(NC(=O)c4cn(C5CCOCC5)cc(-c5ccc(C)cc5)c4=O)nc3)c2cc1OC` [Compound 19, N-(5-((6,7-dimethoxyquinolin-4-yl)oxy)pyridin-2-yl)-4-oxo-1-(tetrahydro-2H-pyran-4-yl)-5-(p-tolyl)-1,4-dihydropyridin-3-carboxamide], for which the pIC50 is 7.47 at Tyro-3 (h) and greater than 9.46 at H1299 cell pMer.
As for `COc1cc2nccc(Oc3cnc(NC(=O)c4cn(C5CCOCC5)cc(-c5ccc(C)cc5)c4=O)nc3)c2cc1OC` [Compound 20, N-(5-((6,7-dimethoxyquinolin-4-yl)oxy)pyrimidin-2-yl)-4-oxo-1-(tetrahydro-2H-pyran-4-yl)-5-(p-tolyl)-1,4-dihydropyridin-3-carboxamide], the negative-log IC50 (pIC50) at Tyro-3 (h) is 7.08; against H1299 cell pMer it was 8.00 to 8.48.
Consider `COc1cc2nccc(Oc3ccc(NC(=O)c4nn(C5CCOCC5)cc(-c5ccc(C)cc5)c4=O)cc3F)c2cc1OC` [Compound 28], for which the pIC50 at Tyro-3 (h) was 7.43; against H1299 cell pMer, 8.96.
For `COc1cc2nccc(Oc3cnc(NC(=O)c4cn(C5CCOCC5)cc(-c5ccc(F)cc5)c4=O)nc3)c2cc1OC` [Compound 31, N-(5-((6,7-dimethoxyquinolin-4-yl)oxy)pyrimidin-2-yl)-5-(4-fluorophenyl)-4-oxo-1-(tetrahydro-2H-pyran-4-yl)-1,4-dihydropyridin-3-carboxamide] the same measures were 7.11 and 8.00 to 8.48.
For `COc1cc2nccc(Oc3ccc(NC(=O)c4cc(CC5CCOCC5)cn(-c5ccc(F)cc5)c4=O)nc3)c2cc1OC` [Compound 32, N-(5-((6,7-dimethoxyquinolin-4-yl)oxy)pyridin-2-yl)-1-(4-fluorophenyl)-2-oxo-5-((tetrahydro-2H-pyran-4-yl)methy 1)-1,2-dihydropyridin-3-carboxamide], the results for the pIC50 on Tyro-3 (h) and on H1299 cell pMer were 7.46 and 8.96, respectively.

For the origin of these results see patent US20210177828A1, “TAM FAMILY KINASE /AND CSF1R KINASE INHIBITOR AND USE THEREOF” (Nanjing Transthera Biosciences Co., Ltd., priority 2018, published 2021).
